Assay results as given in patent publication US20090298878A1, “OXIME COMPOUNDS AND THE USE THEREOF” (priority 2006, published 2009).
Structures can show the parent of a compound that is named as a salt.

Target: T1, N-type calcium channel (NTCC) (Homo sapiens, UniProt Q00975)
T1 construct: host or cells: IMR32 cells differentiated with dibutyryl cAMP and bromodeoxyuridine
Assay: FLIPR calcium mobilization assay for N-type calcium channel (differentiated IMR32 cells)
Assay type: cell-based
Details: about 1.0 μM or less; calcium mobilization and/or electrophysiological assay
Description: Cell maintenance and differentiation. Unless noted otherwise, cell culture reagents were purchased from Mediatech of Hemdon, Md. IMR32 cells (American Type Culture Collection, ATCC, Manassas, Va.) were routinely cultured in growth medium consisting of minimum essential medium containing 10% fetal bovine serum (FBS, Hyclone, Logan, Utah), 100 U/mL penicillin, 100 μg/mL streptomycin, 2 mM L-glutamine, 1 mM sodium pyruvate, and 1× MEM non-essential amino acids. 80-90% confluent flasks of cells were differentiated using the following differentiation medium: Growth medium plus 1 mM dibutyryl cyclic AMP (Sigma, St. Louis, Mo.), and 2.5 μM bromodeoxyuridine (Sigma). Cells were differentiated for 8 days by replacing differentiation medium every 2-3 days.
FLIPR Calcium Mobilization Assay for N-type Calcium Channel. One day prior to performing this assay, differentiated IMR32 cells were treated with 1× CellStripper, and seeded on poly-D-lysine-coated 96-well clear-bottom black plates (Becton Dickinson, Franklin Lakes, N.J.) at 200,000 cells/well. On the day of the assay, the cell plates were washed with IMR32 buffer (127 mM NaCl, 1 mM KCl, 2 mM MgCl2, 700 μM NaH2PO4, 5 mM CaCl2, 5 mM NaHCO3, 8 mM HEPES, 10 mM glucose, pH 7.4), then pre-stimulated with KCl and loaded as follows: 0.05 mL of IMR32 buffer, 0.05 mL of each compound tested diluted in IMR32 buffer containing 20 μM nitrendipine (Sigma), and 0.1 mL KCl dissolved in IMR32 buffer, plus Fluo-4 were added (3 μM final concentration, Molecular Probes, Eugene, Oreg.). Final test compound concentrations ranged from about 846 pM to about 17 μM, final nitrendipine concentration was 5 μM, and final KCl concentration was 90 mM. After 1 hour, the cells were washed twice with 0.05 mL of each compound tested in nitrendipine-containing IMR32 buffer (no KCl or Fluo-4), and then replaced with 0.1 mL of each compound tested in nitrendipine-containing IMR32 buffer. Plates were then transferred to a Fluorimetric imaging Plate Reader (FLIPR^96, Molecular Devices, Inc., Sunnyvale, Calif.) for assay. The FLIPR measured basal Fluo-4 fluorescence for 315 seconds (i.e., 5 minutes and 15 seconds), then added 0.1 mL KCl agonist dissolved in IMR32 buffer and measured fluorescence for another 45 seconds. Final test compound concentrations on the cells after FLIPR read ranged from about 846 pM to about 17 μM, final nitrendipine concentration was 5 μM, and final KCl concentration was 90 mM. Data were collected over the entire time course and analyzed using Excel, Graph Pad Prism (version 3.02, Graph Pad, San Diego, Calif.), or an in-house non-linear regression analysis software.

T1 sequence (Q00975 whole entry): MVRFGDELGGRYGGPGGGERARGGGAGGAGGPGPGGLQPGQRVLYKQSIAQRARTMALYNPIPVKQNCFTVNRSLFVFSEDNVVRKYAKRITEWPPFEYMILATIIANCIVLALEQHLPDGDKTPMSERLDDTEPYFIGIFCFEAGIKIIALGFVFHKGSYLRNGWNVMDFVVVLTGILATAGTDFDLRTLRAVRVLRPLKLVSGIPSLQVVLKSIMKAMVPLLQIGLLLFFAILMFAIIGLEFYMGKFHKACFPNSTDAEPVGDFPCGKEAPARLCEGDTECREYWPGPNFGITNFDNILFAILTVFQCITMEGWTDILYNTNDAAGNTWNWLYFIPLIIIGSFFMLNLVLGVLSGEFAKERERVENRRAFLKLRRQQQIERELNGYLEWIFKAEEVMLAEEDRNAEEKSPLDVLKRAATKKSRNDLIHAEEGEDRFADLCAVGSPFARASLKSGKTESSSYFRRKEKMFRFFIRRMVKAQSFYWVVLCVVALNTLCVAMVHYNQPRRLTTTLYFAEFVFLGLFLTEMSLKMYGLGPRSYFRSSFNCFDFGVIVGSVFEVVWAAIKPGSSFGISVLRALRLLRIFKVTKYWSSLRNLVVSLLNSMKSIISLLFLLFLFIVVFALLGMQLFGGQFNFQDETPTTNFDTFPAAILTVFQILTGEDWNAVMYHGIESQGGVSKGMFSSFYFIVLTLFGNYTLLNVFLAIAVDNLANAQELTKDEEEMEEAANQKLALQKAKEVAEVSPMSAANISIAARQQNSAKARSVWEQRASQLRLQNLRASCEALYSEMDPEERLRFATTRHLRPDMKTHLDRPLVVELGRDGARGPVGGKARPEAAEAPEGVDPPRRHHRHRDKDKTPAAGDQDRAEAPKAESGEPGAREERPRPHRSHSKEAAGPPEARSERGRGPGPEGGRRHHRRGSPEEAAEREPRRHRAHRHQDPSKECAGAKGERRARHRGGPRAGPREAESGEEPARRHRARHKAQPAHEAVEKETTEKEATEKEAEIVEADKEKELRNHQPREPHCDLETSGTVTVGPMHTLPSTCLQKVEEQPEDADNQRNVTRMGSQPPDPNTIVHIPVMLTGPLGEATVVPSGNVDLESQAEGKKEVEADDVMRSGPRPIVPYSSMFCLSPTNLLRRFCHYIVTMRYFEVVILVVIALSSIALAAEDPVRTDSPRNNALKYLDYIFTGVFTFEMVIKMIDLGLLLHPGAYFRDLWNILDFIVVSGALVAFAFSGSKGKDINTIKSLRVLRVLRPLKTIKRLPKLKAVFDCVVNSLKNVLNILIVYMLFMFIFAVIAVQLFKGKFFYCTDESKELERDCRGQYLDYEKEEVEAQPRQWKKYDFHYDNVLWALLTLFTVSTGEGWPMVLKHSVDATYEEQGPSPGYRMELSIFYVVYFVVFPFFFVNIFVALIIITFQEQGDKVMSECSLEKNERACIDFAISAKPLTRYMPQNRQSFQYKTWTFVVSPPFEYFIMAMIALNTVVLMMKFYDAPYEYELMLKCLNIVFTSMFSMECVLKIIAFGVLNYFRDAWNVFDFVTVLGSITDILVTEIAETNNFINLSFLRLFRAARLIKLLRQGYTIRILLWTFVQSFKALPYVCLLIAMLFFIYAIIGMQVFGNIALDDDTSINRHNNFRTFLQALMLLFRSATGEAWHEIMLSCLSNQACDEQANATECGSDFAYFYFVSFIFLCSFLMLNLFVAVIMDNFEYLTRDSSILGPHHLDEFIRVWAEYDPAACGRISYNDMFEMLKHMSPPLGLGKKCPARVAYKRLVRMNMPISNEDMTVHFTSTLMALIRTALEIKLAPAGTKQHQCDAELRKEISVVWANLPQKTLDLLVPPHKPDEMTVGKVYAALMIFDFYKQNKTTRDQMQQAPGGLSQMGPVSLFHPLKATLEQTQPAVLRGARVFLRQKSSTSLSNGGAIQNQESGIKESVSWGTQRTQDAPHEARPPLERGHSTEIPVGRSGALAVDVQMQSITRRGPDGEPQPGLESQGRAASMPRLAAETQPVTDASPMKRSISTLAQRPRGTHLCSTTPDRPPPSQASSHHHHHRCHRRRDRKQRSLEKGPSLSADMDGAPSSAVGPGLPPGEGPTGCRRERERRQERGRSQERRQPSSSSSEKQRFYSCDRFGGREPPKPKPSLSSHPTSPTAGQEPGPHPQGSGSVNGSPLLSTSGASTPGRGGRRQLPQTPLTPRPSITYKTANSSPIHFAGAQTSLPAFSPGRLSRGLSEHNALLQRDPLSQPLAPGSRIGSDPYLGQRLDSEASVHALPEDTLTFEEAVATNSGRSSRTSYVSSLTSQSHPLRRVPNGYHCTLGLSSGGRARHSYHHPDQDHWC

| SMILES | IC50 [nM] |
| --- | --- |
| O=S(=O)(c1cccc(C(F)(F)F)c1)N1CCC(=NOCCC2CCCCC2)CC1 [Example 294, 1-(3-(Trifluoromethyl)phenylsulfonyl)piperidin-4-one O-2-cyclohexylethyl oxime] | ≤ 1000 |
| N#Cc1ccccc1S(=O)(=O)N1CCC(=NOC(c2ccc(F)cc2)c2ccc(F)cc2)CC1 [Example 229, 2-(4-(Bis(4-fluorophenyl)methoxyimino)piperidin-1-ylsulfonyl)benzonitrile] | ≤ 1000 |
| O=S(=O)(c1cccc(OC(F)(F)F)c1)N1CCC(=NOC(c2ccc(F)cc2)c2ccc(F)cc2)CC1 [Example 290, 1-(3-(Trifluoromethoxy)phenylsulfonyl)piperidin-4-one O-bis(4-fluorophenyl)methyl oxime] | ≤ 1000 |
| N#Cc1ccccc1CON=C1CCN(S(=O)(=O)c2ccc(OC(F)(F)F)cc2)CC1 [Example 120, 2-[1-(4-Trifluoromethoxybenzenesulfonyl)piperidin-4-ylideneaminooxymethyl]benzonitrile] | ≤ 1000 |
| O=S(=O)(c1ccc(OC(F)(F)F)cc1)N1CCC(=NOCc2nc3ccccc3[nH]2)CC1 [Example 162, 1-(4-(Trifluoromethoxy)phenylsulfonyl)piperidin-4-one O-(1H-benzo[d]imidazol-2-yl)methyl oxime] | ≤ 1000 |
| O=S(=O)(c1ccc(OC(F)(F)F)cc1)N1CCC(=NOCc2ncccc2-c2ccccc2)CC1 [Example 313, 1-(4-(Trifluoromethoxy)phenylsulfonyl)piperidin-4-one O-(3-phenylpyridin-2-yl)methyl oxime] | ≤ 1000 |
| N#Cc1ccc(S(=O)(=O)N2CCC(=NOCc3cccc(C#N)c3)CC2)cc1 [Example 199] | ≤ 1000 |
| N#Cc1cc(CON=C2CCN(S(=O)(=O)c3ccc(OC(F)(F)F)cc3)CC2)ccc1F [Example 108, 2-Fluoro-5-[1-(4-trifluoromethoxybenzenesulfonyl)piperidin-4-ylideneaminooxymethyl]benzonitrile] | ≤ 1000 |
| O=S(=O)(c1cccnc1)N1CCC(=NOC(c2ccc(F)cc2)c2ccc(F)cc2)CC1 [Example 291, 1-(Pyridin-3-ylsulfonyl)piperidin-4-one O-bis(4-fluorophenyl)methyl oxime] | ≤ 1000 |
| CCCCc1ccc(S(=O)(=O)N2CCC(=NOCC3CCCCC3)CC2)cc1 [Example 82, 1-(4-Butylbenzenesulfonyl)piperidin-4-one O-cyclohexylmethyloxime] | ≤ 1000 |
| O=S(=O)(c1cccc(C(F)(F)F)c1)N1CCC(=NOC(c2ccc(F)cc2)c2ccc(F)cc2)CC1 [Example 285, 1-(3-(Trifluoromethyl)phenylsulfonyl)piperidin-4-one O-bis(4-fluorophenyl)methyl oxime] | ≤ 1000 |
| N#Cc1cccc(S(=O)(=O)N2CCC(=NOCc3cccc(C(F)(F)F)c3)CC2)c1 [Example 284, 3-(4-(3-(Trifluoromethyl)benzyloxyimino)piperidin-1-ylsulfonyl)benzonitrile] | ≤ 1000 |
| CC(C)CCON=C1CCN(S(=O)(=O)c2cccc(C(F)(F)F)c2)CC1 [Example 366, 1-(3-(Trifluoromethyl)phenylsulfonyl)piperidin-4-one O-isopentyl oxime] | ≤ 1000 |
| O=C(CCN1CCC(c2ccccc2)CC1)N1CCC(=NOCc2cccc(C(F)(F)F)c2)CC1 [Example 47, 1-[3-(4-Phenylpiperidin-1-ylpropionyl]piperidin-4-one O-(3-trifluoromethylbenzyl)oxime hydrochloride] | ≤ 1000 |
| O=S(=O)(c1ccc(F)c(F)c1)N1CCC(=NOC(c2ccc(F)cc2)c2ccc(F)cc2)CC1 [Example 243, 1-(3,4-Difluorophenylsulfonyl)piperidin-4-one O-bis(4-fluorophenyl)methyl oxime] | ≤ 1000 |
| O=S(=O)(c1ccc(OC(F)(F)F)cc1)N1CCC(=NOC(c2ccc(F)cc2)C2CC2)CC1 (centres unmarked) [Example 306, 1-(4-(Trifluoromethoxy)phenylsulfonyl)piperidin-4-one O-cyclopropyl(4-fluorophenyl)methyl oxime] | ≤ 1000 |

| SMILES | IC50 [nM] |
| --- | --- |
| O=S(=O)(c1ccc(OC(F)(F)F)cc1)N1CCC(=NOCC2Oc3ccccc3O2)CC1 [Example 265, 1-(4-(Trifluoromethoxy)phenylsulfonyl)piperidin-4-one O-benzo[d][1,3]dioxol-2-ylmethyl oxime] | ≤ 1000 |
| CCCCc1ccc(S(=O)(=O)N2CCC(=NOCc3cccc(OC)c3)CC2)cc1 [Example 80, 1-(4-Butylbenzenesulfonyl)piperidin-4-one O-(3-methoxybenzyl)oxime] | ≤ 1000 |
| N#Cc1cccc(C(CN2CCOCC2)ON=C2CCN(S(=O)(=O)c3ccc(OC(F)(F)F)cc3)CC2)c1 (centres unmarked) [Example 302, 3-(2-Morpholino-1-(1-(4-(trifluoromethoxy)phenylsulfonyl)piperidin-4-ylideneaminooxy)ethyl)benzonitrile] | ≤ 1000 |
| O=S(=O)(c1ccc(F)cc1)N1CCC(=NOCc2cccc(C(F)(F)F)c2)CC1 [Example 62, 1-(4-Fluorobenzenesulfonyl)piperidin-4-one O-(3-trifluoromethylbenzyl)oxime] | ≤ 1000 |
| COc1ccc(CON=C2CCN(S(=O)(=O)c3ccc(OC(F)(F)F)cc3)CC2)cn1 [Example 144, 1-(4-Trifluoromethoxybenzenesulfonyl)piperidin-4-one O-(6-methoxypyridin-3-ylmethyl)oxime] | ≤ 1000 |
| COc1ccccc1S(=O)(=O)N1CCC(=NOC(c2ccc(F)cc2)c2ccc(F)cc2)CC1 [Example 238, 1-(2-Methoxyphenylsulfonyl)piperidin-4-one O-bis(4-fluorophenyl)methyl oxime] | ≤ 1000 |
| CCCCc1ccc(S(=O)(=O)N2CCC(=NOC(C)c3cccc(C(F)(F)F)c3)CC2)cc1 (centres unmarked) [Example 74, 1-(4-Butylbenzenesulfonyl)piperidin-4-one O-[1-(3-trifluoromethylphenyl)ethyl]oxime] | ≤ 1000 |
| COCC(ON=C1CCN(S(=O)(=O)c2ccc(OC(F)(F)F)cc2)CC1)c1cccc(C#N)c1 (centres unmarked) [Example 273, 3-(2-Methoxy-1-(1-(4-(trifluoromethoxy)phenylsulfonyl)piperidin-4-ylideneaminooxy)ethyl)benzonitrile] | ≤ 1000 |
| O=S(=O)(c1cc(F)cc(F)c1)N1CCC(=NOC(c2ccc(F)cc2)c2ccc(F)cc2)CC1 [Example 244, 1-(3,5-Difluorophenylsulfonyl)piperidin-4-one O-bis(4-fluorophenyl)methyl oxime] | ≤ 1000 |
| CCCCc1ccc(S(=O)(=O)N2CCC(=NOCc3cccc(OC)n3)CC2)cc1 [Example 76, 1-(4-Butylbenzenesulfonyl)piperidin-4-one O-(6-methoxypyridin-2-ylmethyl)oxime] | ≤ 1000 |
| COc1cccc(CON=C2CCN(S(=O)(=O)c3ccc(OC(F)(F)F)cc3)CC2)n1 [Example 110, 1-(4-Trifluoromethoxybenzenesulfonyl)piperidin-4-one O-(6-methoxypyridin-2-ylmethyl)oxime] | ≤ 1000 |
| N#Cc1ccc(S(=O)(=O)N2CCC(=NOC(c3ccc(F)cc3)c3ccc(F)cc3)CC2)cc1 [Example 256, 4-(4-(Bis(4-fluorophenyl)methoxyimino)piperidin-1-ylsulfonyl)benzonitrile] | ≤ 1000 |
| N#Cc1cccc(C(ON=C2CCN(S(=O)(=O)c3ccc(OC(F)(F)F)cc3)CC2)C2CC2)c1 (centres unmarked) [Example 186, 3-(Cyclopropyl(1-(4-(trifluoromethoxy)phenylsulfonyl)piperidin-4-ylideneaminooxy)methyl)benzonitrile] | ≤ 1000 |
| N#Cc1ccc(-n2cc(CON=C3CCN(S(=O)(=O)c4ccc(OC(F)(F)F)cc4)CC3)ccc2=O)cc1 [Example 315, 4-(2-oxo-5-((1-(4-(trifluoromethoxy)phenylsulfonyl)piperidin-4-ylideneaminooxy)methyl)pyridin-1(2H)-yl)benzonitrile] | ≤ 1000 |
| N#Cc1cccc(C(ON=C2CCN(S(=O)(=O)c3ccc(NC4CCCC4)nc3)CC2)C2CC2)c1 (centres unmarked) [Example 275, 3-((1-(6-(Cyclopentylamino)pyridin-3-ylsulfonyl)piperidin-4-ylideneaminooxy)(cyclopropyl)methyl)benzonitrile] | ≤ 1000 |
| COc1cc(CON=C2CCN(S(=O)(=O)c3ccc(OC(F)(F)F)cc3)CC2)nc2ccccc12 [Example 189, 1-(4-(Trifluoromethoxy)phenylsulfonyl)piperidin-4-one O-(4-methoxyquinolin-2-yl)methyl oxime] | ≤ 1000 |
